System: osteolytic activity of osteoclast cells induced by receptor activator of nuclear factor κB ligand
Experiment: Osteolytic activity of osteoclasts on corning osteo assay surface plate
Type: cell-based, mouse
Details: 10 μg/ml co-treated with 100 ng/ml RANKL, 12 days
Description: Effect of the compound of formula I on receptor activator of nuclear factor κB ligand-induced osteocytic activity of the osteoclast cells Osteoclast is a multinuclear cell, which differentiates because of the stimulation of macrophage colony stimulating factor and receptor activator of nuclear factor κB ligand, after differentiation the folds on the edge of the osteoclast form a resorption groove on the cell membrane and the bone surface is […]. In this space, the […] secretes some enzymes and acids. These acids activate the enzymes to initiate osteolysis of bone mineral matrix. […]
In order to confirm the effect of the compound of formula I on the bone resorption capability of differentiated osteoclasts, RAW 264.7 cells were cultured in a 24-well plate (osteo assay plate, 24 well; corning incorporated) containing artificial bone material, the cell number of each well was 2×10^3 cell/ml. […] The number of grooves per each well was counted under a microscope 40× and further photographed for observation.

## CNC(=O)N[C@]1(C)CCC[C@@]2(C)C3CC[C@@]4(C)C[C@]3(CCC21)CC4=O (single isomer, unassigned; ent-16) [compound of formula I, ent-16-oxobeyeran-19-N-methylureido]
  eroded area of the artificial bone material: substantially reduced
  osteolytic activity of osteoclast cells: inhibited

Reference: patent publication US20180042874A1, “METHOD FOR TREATING OSTEOPOROSIS” (China Medical University, priority 2016, published 2018)
